Results as given in US7649092B2, “Urea derivatives as calcium channel blockers” (Neuromed Pharmaceuticals Ltd., priority 2004, dated 2010).
Like-named read-outs stand apart in the source and are kept apart here.

Tests used:
[1] = system: SNL rats, tactile allodynia; assay: Spinal nerve ligation (SNL) model of neuropathic pain, tactile allodynia (von Frey filaments); assay type: in vivo; settings: rat SNL, 30 mg/kg orally in propylene glycol
Text: (§1) Spinal nerve ligation (SNL) injury was induced using the procedure of Kim and Chung, (Kim, S. H., et al., Pain (1992) 50:355-363) in male Sprague-Dawley rats (Harlan; Indianapolis, Ind.) weighing 200 to 300 grams. Anesthesia was induced with 2% halothane in O2 at 2 L/min and maintained with 0.5% halothane in O2. After surgical preparation of the rats and exposure of the dorsal vertebral column from L4 to S2, the L5 and L6 spinal nerves were tightly ligated distal to the dorsal root ganglion using 4-0 silk suture. The incision was closed, and the animals were allowed to recover for 5 days. […] Sham control rats underwent the same operation and handling as the experimental animals, but without SNL.
The assessment of tactile allodynia consisted of measuring the withdrawal threshold of the paw ipsilateral to the site of nerve injury in response to probing with a series of calibrated von Frey filaments. Each filament was applied perpendicularly to the plantar surface of the ligated paw of rats kept in suspended wire-mesh cages. Measurements were taken before and after administration of drug or vehicle. Withdrawal threshold was determined by sequentially increasing and decreasing the stimulus strength (“up and down” method), analyzed using a Dixon non-parametric test (Chaplan, S. R., et al., J Pharmacol Exp Ther (1994) 269:1117-1123), and expressed as the mean withdrawal threshold.
(§2) Compound 1 was administered orally in propylene glycol solution at a dose of 30 mg/kg. The percent activity was calculated for block of tactile allodynia, thermal hyperalgesia and analgesia.

[2] = molecular target: T1, human DiG T-type channels (Homo sapiens, UniProt O43497); assay: T-type calcium channel block, whole-cell patch clamp in HEK cell lines; assay type: cell-based
T1 construct: expressed in transfected cells
Protocol: Standard patch-clamp techniques were employed to identify blockers of T-type currents. Briefly, previously described HEK cell lines stably expressing human DiG T-type channels were used for all the recordings (passage #: 4-20, 37° C., 5% CO2). To obtain T-type currents, plastic dishes containing semi-confluent cells were positioned on the stage of a ZEISS AXIOVERT S100 microscope after replacing the culture medium with external solution (see below). Whole-cell patches were obtained using pipettes (borosilicate glass with filament, O.D.: 1.5 mm, I.D.: 0.86 mm, 10 cm length), fabricated on a SUTTER P-97 puller with resistance values of ˜5 MΩ (see below for internal solution).
In the non-inactivating protocol, the holding potential is set at −110 mV and with a pre-pulse at −100 mV for 1 second prior to the test pulse at −40 mV for 50 ms. […]
Test compounds were dissolved in external solution, 0.1-0.01% DMSO. After ˜10 min rest, they were applied by gravity close to the cell using a WPI microfil tubing. The “non-inactivated” pre-pulse was used to examine the resting block of a compound. The “inactivated” protocol was employed to study voltage-dependent block. However, the initial data shown below were mainly obtained using the non-inactivated protocol only. IC50 values are shown for various compounds of the invention in Table 5.

[3] = system: SNL rats, thermal hyperalgesia / anti nociception; assay: Spinal nerve ligation (SNL) model of neuropathic pain, paw-withdrawal latency to thermal stimulus (Hargreaves); assay type: in vivo; settings: rat SNL, 30 mg/kg orally in propylene glycol
Text: as §1
The method of Hargreaves and colleagues (Hargreaves, K., et al., Pain (1988) 32:77-88) was employed to assess paw-withdrawal latency to a thermal nociceptive stimulus. Rats were allowed to acclimate within a Plexiglas enclosure on a clear glass plate maintained at 30° C. A radiant heat source (i.e., high intensity projector lamp) was activated with a timer and focused onto the plantar surface of the affected paw of nerve-injured or carrageenan-injected rats. Paw-withdrawal latency was determined by a photocell that halted both lamp and timer when the paw was withdrawn. The latency to withdrawal of the paw from the radiant heat source was determined prior to carrageenan or […], 3 hours after carrageenan or 7 days after L5/L6 SNL but before drug and after drug administration. A maximal cut-off of 40 seconds was employed to prevent tissue damage. Paw withdrawal latencies were thus determined to the nearest 0.1 second. Reversal of thermal hyperalgesia was indicated by a return of the paw withdrawal latencies to the pre-treatment baseline latencies (i.e., 21 seconds). Anti nociception was indicated by a significant (p<0.05) increase in paw withdrawal latency above this baseline. Data were converted to % anti hyperalgesia or % anti nociception by the formula: (100×(test latency−baseline latency)/(cut-off−baseline latency) where cut-off was 21 seconds for determining anti hyperalgesia and 40 seconds for determining anti nociception.
as §2

[4] = system: rat formalin model; assay: Formalin-induced pain model (paw flinches); assay type: in vivo; settings: 30 mg/kg IP, 10 min before formalin, ±SEM, saline control=100%
Protocol: The effects of intrathecally delivered compounds of the invention on the rat formalin model were measured. The compounds were reconstituted to stock solutions of approximately 10 mg/ml in propylene glycol. Eight Holtzman male rats of 275-375 g size were randomly selected per test article.
The following study groups were used, with test article, vehicle control (propylene glycol) and saline delivered intraperitoneally (IP):
Prior to initiation of drug delivery baseline behavioral and testing data were taken.
On the morning of testing, a small metal band (0.5 g) was loosely placed around the right hind paw. The rat was placed in a cylindrical Plexiglas chamber for adaptation a minimum of 30 minutes. Test Article or Vehicle Control Article was administered 10 minutes prior to formalin injection (50 μl of 5% formalin) into the dorsal surface of the right hind paw of the rat. The animal was then placed into the chamber of the automated formalin apparatus where movement of the formalin injected paw was monitored and the number of paw flinches tallied by minute over the next 60 minutes (Malmberg, A. B., et al., Anesthesiology (1993) 79:270-281).
Results are presented as Maximum Possible Effect ±SEM, where saline control=100%.

[5] = molecular target: T2, rat brain N-type calcium channel subunits (α1B+α2δ+β1b cDNA subunits) (Rattus norvegicus, UniProt Q02294); assay: N-type calcium channel block, whole cell patch clamp in HEK 293 cells; assay type: cell-based; settings: holding potential −80 mV to +10 mV
T2 construct: expressed in transfected cells
T2 sequence (Q02294 whole entry): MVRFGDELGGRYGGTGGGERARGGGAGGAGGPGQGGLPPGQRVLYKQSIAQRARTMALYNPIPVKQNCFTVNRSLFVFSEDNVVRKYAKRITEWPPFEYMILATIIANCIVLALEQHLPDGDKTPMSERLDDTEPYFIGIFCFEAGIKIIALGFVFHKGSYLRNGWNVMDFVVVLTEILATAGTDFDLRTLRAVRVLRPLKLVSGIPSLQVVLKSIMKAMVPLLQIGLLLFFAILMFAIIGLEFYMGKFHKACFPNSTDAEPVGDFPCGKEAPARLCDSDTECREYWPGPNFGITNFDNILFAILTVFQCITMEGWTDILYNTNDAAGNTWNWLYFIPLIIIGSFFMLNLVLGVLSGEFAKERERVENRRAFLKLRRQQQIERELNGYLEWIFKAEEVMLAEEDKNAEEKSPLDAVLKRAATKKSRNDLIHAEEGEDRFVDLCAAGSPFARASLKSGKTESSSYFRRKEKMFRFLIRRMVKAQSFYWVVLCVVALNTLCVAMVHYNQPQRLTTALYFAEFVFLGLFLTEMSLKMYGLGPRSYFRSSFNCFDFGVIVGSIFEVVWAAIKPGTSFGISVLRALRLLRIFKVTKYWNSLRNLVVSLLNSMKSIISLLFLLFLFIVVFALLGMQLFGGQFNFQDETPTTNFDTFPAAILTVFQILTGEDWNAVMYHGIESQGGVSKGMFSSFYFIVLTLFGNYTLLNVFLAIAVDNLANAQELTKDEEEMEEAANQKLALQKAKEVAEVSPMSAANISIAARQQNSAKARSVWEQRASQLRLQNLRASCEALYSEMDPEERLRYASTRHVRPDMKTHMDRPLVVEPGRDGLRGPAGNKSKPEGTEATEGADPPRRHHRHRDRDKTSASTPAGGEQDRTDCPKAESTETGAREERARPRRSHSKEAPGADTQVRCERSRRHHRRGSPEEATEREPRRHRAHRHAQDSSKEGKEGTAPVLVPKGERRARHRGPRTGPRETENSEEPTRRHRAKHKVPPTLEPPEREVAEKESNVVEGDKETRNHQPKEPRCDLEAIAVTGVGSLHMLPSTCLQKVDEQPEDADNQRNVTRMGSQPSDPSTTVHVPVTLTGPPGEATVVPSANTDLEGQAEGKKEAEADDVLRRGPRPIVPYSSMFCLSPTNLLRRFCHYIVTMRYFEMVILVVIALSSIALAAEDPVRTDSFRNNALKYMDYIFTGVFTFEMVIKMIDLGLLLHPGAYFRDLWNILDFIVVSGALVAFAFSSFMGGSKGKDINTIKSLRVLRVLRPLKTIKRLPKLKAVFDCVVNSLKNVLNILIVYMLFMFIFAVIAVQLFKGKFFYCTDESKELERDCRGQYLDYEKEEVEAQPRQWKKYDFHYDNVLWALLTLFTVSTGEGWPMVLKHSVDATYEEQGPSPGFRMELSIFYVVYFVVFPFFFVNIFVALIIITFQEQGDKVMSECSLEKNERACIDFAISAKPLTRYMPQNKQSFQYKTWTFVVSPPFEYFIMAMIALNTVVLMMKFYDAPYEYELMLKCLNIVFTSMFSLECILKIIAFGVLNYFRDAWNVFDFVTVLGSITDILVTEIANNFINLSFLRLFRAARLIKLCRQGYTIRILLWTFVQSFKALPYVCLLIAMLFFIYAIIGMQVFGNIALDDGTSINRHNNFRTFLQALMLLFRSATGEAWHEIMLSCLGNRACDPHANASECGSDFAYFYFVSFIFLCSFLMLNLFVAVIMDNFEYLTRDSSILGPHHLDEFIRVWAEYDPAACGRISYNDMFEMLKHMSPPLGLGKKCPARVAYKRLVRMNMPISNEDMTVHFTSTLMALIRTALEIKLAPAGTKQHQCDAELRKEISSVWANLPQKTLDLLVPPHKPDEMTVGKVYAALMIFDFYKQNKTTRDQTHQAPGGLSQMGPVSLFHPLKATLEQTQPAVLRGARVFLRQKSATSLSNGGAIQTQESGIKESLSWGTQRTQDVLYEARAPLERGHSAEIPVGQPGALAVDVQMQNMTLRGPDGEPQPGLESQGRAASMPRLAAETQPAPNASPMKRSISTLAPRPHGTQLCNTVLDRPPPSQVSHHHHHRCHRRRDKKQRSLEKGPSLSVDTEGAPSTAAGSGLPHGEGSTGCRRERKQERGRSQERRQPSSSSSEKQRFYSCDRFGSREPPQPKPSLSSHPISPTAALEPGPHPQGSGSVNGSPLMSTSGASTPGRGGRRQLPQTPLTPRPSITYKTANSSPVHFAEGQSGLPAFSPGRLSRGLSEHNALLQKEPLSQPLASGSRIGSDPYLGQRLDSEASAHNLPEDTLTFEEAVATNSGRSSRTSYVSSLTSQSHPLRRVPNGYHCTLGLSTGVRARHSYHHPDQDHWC
T2 sequence (P54290 25-1091 partner): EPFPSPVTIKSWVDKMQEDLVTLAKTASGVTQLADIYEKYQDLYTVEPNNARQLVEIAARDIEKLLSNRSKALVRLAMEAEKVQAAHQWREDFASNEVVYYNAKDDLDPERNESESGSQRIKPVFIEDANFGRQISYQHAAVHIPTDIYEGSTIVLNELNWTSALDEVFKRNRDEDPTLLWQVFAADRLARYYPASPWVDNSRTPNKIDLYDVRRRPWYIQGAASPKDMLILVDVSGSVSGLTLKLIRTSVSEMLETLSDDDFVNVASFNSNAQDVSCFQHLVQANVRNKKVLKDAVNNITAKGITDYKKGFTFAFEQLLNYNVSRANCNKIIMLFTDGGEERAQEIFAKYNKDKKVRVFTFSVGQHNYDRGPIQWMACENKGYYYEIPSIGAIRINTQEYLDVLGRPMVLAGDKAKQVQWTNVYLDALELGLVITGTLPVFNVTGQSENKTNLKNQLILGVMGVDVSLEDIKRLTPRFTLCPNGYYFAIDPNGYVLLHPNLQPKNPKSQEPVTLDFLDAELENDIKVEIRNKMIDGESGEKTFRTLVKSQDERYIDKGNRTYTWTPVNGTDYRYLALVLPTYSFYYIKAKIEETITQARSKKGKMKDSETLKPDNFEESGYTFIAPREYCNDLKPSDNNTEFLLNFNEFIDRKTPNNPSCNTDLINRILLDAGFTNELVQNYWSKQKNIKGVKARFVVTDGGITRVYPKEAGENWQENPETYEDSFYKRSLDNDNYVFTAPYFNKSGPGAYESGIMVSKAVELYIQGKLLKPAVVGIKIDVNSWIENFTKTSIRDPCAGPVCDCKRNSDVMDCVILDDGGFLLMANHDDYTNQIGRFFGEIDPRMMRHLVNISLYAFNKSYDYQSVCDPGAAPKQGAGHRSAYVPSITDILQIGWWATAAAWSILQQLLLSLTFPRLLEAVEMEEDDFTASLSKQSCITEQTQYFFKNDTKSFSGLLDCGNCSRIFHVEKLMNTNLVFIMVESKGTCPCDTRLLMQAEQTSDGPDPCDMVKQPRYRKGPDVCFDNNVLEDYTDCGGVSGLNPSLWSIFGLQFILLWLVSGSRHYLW
T2 sequence (P54283 whole entry partner): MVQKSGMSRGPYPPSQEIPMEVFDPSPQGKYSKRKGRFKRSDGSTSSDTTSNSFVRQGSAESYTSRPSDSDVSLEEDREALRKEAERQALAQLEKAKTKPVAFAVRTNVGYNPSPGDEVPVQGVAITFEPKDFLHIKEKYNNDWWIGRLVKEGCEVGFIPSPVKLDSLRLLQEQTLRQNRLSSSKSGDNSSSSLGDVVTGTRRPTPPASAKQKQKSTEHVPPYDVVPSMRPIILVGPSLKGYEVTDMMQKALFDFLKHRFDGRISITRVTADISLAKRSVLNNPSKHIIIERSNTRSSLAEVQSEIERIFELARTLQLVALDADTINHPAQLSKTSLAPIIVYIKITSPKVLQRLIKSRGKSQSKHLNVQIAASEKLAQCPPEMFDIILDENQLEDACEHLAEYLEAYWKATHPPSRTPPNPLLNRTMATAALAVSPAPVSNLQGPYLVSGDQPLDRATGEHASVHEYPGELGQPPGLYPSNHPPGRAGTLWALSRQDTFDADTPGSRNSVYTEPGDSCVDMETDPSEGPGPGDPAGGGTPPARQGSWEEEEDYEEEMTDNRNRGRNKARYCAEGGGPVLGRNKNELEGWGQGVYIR
Protocol: N-type calcium channel blocking activity was assayed in human embryonic kidney cells, HEK 293, stably transfected with the rat brain N-type calcium channel subunits (α1B+α2δ+β1b cDNA subunits). Alternatively, N-type calcium channels (α1B+α2δ+β1b cDNA subunits), L-type channels (α1C+α2δ+β1b cDNA subunits) and P/Q-type channels (α1A+α2δ+β1b cDNA subunits) were transiently expressed in HEK 293 cells. Briefly, cells were cultured in Dulbecco's modified eagle medium (DMEM) supplemented with 10% fetal bovine serum, 200 U/ml penicillin and 0.2 mg/ml streptomycin at 37° C. with 5% CO2. At 85% confluency cells were split with 0.25% trypsin/1 mM EDTA and plated at 10% confluency on glass coverslips. At 12 hours the medium was replaced and the cells transiently transfected using a standard calcium phosphate protocol and the appropriate calcium channel cDNA's. Fresh DMEM was supplied and the cells transferred to 28° C./5% CO2. Cells were incubated for 1 to 2 days prior to whole cell recording.
Whole cell patch clamp experiments were performed using an Axopatch 200B amplifier (Axon Instruments, Burlingame, Calif.) linked to a personal computer equipped with pCLAMP software. The external and internal recording solutions contained, respectively, 5 mM BaCl2, 10 mM MgCl2, 10 mM HEPES, 40 mM TEAC1, 10 mM glucose, 87.5 mM CsCl (pH 7.2) and 108 mM CsMS, 4 mM MgCl2, 9 mM EGTA, 9 mM HEPES (pH 7.2). Currents were typically elicited from a holding potential of −80 mV to +10 mV using Clampex software (Axon Instruments). Typically, currents were first elicited with low frequency stimulation (0.067 Hz) and allowed to stabilize prior to application of the compounds. The compounds were then applied during the low frequency pulse trains for two to three minutes to assess tonic block, and subsequently the pulse frequency was increased to 0.2 Hz to assess frequency dependent block. Data were analyzed using Clampfit (Axon Instruments) and SigmaPlot 4.0 (Jandel Scientific).

[6] = system: T-type over L-type channels; settings: literature (Heady et al. 2001); cited from earlier work
[7] = inactivation protocol, @ −80 mV, read-out: IC50 @ −80 mV
[8] = non-inactivating protocol, pre-pulse −100 mV, test pulse −40 mV, read-out: IC50 @ −100 mV
[9] = low frequency stimulation 0.067 Hz (tonic block), read-out: IC50 @ 0.067 Hz
[10] = pulse frequency 0.2 Hz (frequency dependent block), read-out: IC50 @ 0.2 Hz

Structure (SMILES) | IC50 [2, 7] | IC50 [2, 8] | Phase I (% MPE) [4] | Phase II Total (% MPE) [4] | Phase IIA (% MPE) [4] | Phase IIB (% MPE) [4] | IC50 [5, 9] | IC50 [5, 10] | further results
O=C(NC(c1ccccc1)c1ccccc1)N1CCN(C(c2ccccc2)c2ccccc2)CC1 [Compound 1, 4-Benzhydryl-piperazine-1-carboxylic acid benzhydryl-amide] | 231 nM | 583 nM | 58 ± 15 % MPE | 75 ± 12 % MPE | 65 ± 12 % MPE | 99 ± 15 % MPE | 200 nM | 150 nM | Tactile Allodynia (% Activity) ([1]; 30 min): 35.77 ± 10.38 % Activity; Tactile Allodynia (% Activity) ([1]; 60 min): 80.89 ± 13.30 % Activity; Tactile Allodynia (% Activity) ([1]; 90 min): 35.49 ± 9.01 % Activity; Tactile Allodynia (% Activity) ([1]; 120 min): 19.61 ± 6.78 % Activity; Tactile Allodynia (% Activity) ([1]; 150 min): 1.98 ± 1.42 % Activity; Analgesia (% Activity) ([3]; 30 min): 82.47 ± 10.11 % Activity; Thermal Hyperalgesia (% Activity) ([3]; 30 min): 46.98 ± 15.09 % Activity; Analgesia (% Activity) ([3]; 60 min): 88.95 ± 8.30 % Activity; Thermal Hyperalgesia (% Activity) ([3]; 60 min): 97.86 ± 2.14 % Activity; Analgesia (% Activity) ([3]; 90 min): 9.02 ± 5.66 % Activity; Thermal Hyperalgesia (% Activity) ([3]; 90 min): 49.07 ± 10.17 % Activity; Analgesia (% Activity) ([3]; 120 min): 0.00 ± 0.00 % Activity; Thermal Hyperalgesia (% Activity) ([3]; 120 min): 33.36 ± 10.62 % Activity
O=C(NC(c1ccccc1)c1ccccc1)N1CCN(C(c2ccccc2)c2ccccc2Cl)CC1 (centres unmarked) [Compound 6, 4-[(2-Chloro-phenyl)-phenyl-methyl]-piperazine-1-carboxylic acid benzhydryl-amide] | 47 nM | 147 nM | 53 ± 10 % MPE | 71 ± 7 % MPE | 63 ± 9 % MPE | 99 ± 5 % MPE | 280 nM | 180 nM | –
O=C(NC(c1ccccc1)c1ccccc1)N1CCN(C(c2ccccc2)c2cccc(Cl)c2Cl)CC1 (centres unmarked) [Compound 7, 4-[(2,3-Dichloro-phenyl)-phenyl-methyl]-piperazine-1-carboxylic acid benzhydryl-amide] | 324 nM | 4200 nM | 61 ± 6 % MPE | 71 ± 7 % MPE | 63 ± 9 % MPE | 85 ± 20 % MPE | 230 nM | 200 nM | –
COCC(=O)O[C@]1(CCN(C)CCCc2nc3ccccc3[nH]2)CCc2cc(F)ccc2[C@@H]1C(C)C [Mibefradil] | – | – | – | – | – | – | – | – | selective for T-type over L-type channels [6]: 10-30 fold
